Assay results taken from patent US7317038B2, “Nerve regeneration promoters containing semaphorin inhibitor as the active ingredient” (Dainippon Sumitomo Pharma Co., Ltd., priority 2000, dated 2008).

Test system: spinal cord injury model adult rats
Assay: In vivo nerve regeneration after transection of the spinal nerve (cerebral cortex-spinal cord tract)
Settings: rat; 0.6 μg/day for four consecutive weeks
Method: Male Wister rats (10-week-old) were purchased from Charles River Japan, Inc. and bred under free feeding and water uptake in a dedicated breeding room. They were used in the experiment after about one week of pre-breeding. SPF-3059-1 was prepared to 0.1 mg/ml with PBS. PBS was used as a control. The agent was filled in an osmotic pressure pump (Alzet, model 2004, dosage for four weeks, flow rate 0.25 μl/hr). A cannula filled with the sample solution etc. was connected to the pump and pre-incubated in saline overnight at room temperature.
A rat was intrapenitrially injected with pentbarbital (50 mg/kg). Skin and muscles in dorsal thoracic spinal cord region of the anesthetized rat were incised and the T8-T12 vertebras were exposed. Laminectomy was carried out for the T11 thoracic vertebra under the microscope. A pair of ophthalmologic scissors attached to the manipulator was punctured and inserted across the median line into the depth of 1.5 mm from the duramater surface, and the cerebral cortex-spinal cord pathway was incised and separated. The vertebra opening was filled with a spongel. Cannulation was performed from the T9 vertebra which was perforated with a surgical drill to expose the duramater. The part of the duramater, to which a cannula was to be inserted, was perforated with an injection needle and the silicon tube connected with the pump was inserted therein. […]

CC(=O)c1c(C)c(C(=O)C2COc3cc(O)c(O)c(C(=O)O)c3C2=O)cc2c(=O)c3c(C(=O)O)c(O)c(O)cc3oc12 (stereo not shown) [SPF-3059-1]
nerve-regeneration promoting action after spinal nerve incision (DBA-positive fibers): has the nerve-regeneration promoting action
